According to patent publication US20250170126A1 (MITSUBISHI TANABE PHARMA CORPORATION, priority 2022, published 2025):
pIC50: −log10 of the molar value.

Target: Human B0AT1 (Homo sapiens (Human), UniProt Q695T7)
Experiment: hB0AT1 inhibitory test (phenylalanine uptake)
Assay type: cell-based
Settings: Human B0AT1 stable expression CHO cells; [3H]-L-phenylalanine uptake, phenylalanine 0.25 mM
Procedure: A test compound dissolved in dimethyl sulfoxide (DMSO) was added to a 96 well plate for solid phase radioactivity measurement containing a scintillator at the bottom of the well (final concentration of DMSO 0.5%). DMSO alone as a control and DMSO containing N-(4-bromophenyl)-3,5-dichloro-2-hydroxybenzamide (final concentration […]) for the is measurement of B0AT1 non-specific uptake were similarly added at 0.5 μL per well. Human B0AT1 stable expression CHO cells suspended in a buffer (buffer containing 96 mM sodium chloride, 2 mM potassium chloride, 1.8 mM calcium chloride, 1 mM magnesium chloride, 0.01% bovine serum albumin, and 10 mM 2-[4-(2-hydroxyethyl)-1-piperazinyl]ethanesulfonic acid) were added by 90 μL to 75000 cells/well. After standing at ordinary temperature for 30 min or longer, the cells were subjected to a phenylalanine uptake experiment. A buffer containing L-phenylalanine and [3,4,5-3H]-L-phenylalanine was added by 10 μL per well (final concentration of phenylalanine 0.25 mM), and the radioactivity of the plate bottom surface at ordinary temperature was measured with a scintillation counter over time, and the radioactivity value after 100 to 200 min was analyzed. A value obtained by subtracting the B0AT1 non-specific uptake from the control uptake was taken as 100%, and the concentration necessary for each test compound to achieve 50% inhibition (IC50 value) was determined by nonlinear regression using a logistic model.

Chain of Human B0AT1 (Q695T7 whole entry): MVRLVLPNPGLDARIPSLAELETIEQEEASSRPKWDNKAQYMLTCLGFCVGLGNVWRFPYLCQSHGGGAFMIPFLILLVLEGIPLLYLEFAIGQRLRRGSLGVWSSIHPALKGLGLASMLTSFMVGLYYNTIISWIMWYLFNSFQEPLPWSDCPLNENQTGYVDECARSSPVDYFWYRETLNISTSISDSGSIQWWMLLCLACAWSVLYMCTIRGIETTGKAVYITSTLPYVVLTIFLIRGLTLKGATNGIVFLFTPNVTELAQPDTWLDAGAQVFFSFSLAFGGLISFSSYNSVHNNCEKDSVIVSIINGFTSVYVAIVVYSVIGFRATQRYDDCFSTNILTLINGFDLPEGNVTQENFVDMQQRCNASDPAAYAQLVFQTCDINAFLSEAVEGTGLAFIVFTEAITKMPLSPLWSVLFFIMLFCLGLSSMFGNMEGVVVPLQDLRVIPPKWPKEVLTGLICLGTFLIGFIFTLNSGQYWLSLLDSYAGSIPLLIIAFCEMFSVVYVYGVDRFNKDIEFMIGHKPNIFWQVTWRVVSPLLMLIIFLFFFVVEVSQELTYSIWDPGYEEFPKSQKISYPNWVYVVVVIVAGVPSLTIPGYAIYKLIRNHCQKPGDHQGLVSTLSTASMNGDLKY

pIC50	SMILES
6.44	O=C(/C=C/c1ccc(C(F)(F)F)cc1)NCC(=O)N1Cc2ccnn2C[C@@H]1C(=O)O [I-283, (6R)-5-[2-[[(E)-3-[4-(trifluoromethyl)phenyl]prop-2-enoyl]amino]acetyl]-6,7-dihydro-4H-pyrazolo[1,5-a]pyrazine-6-carboxylic acid]
6.65	O=C(/C=C/c1ccc(C(F)(F)F)cc1)NCC(=O)N1CCc2c(ccc(C(=O)O)c2F)C1 [I-261, 5-fluoro-2-[2-[[(E)-3-[4-(trifluoromethyl)phenyl]prop-2-enoyl]amino]acetyl]-3,4-dihydro-1H-isoquinoline-6-carboxylic acid]
6.33	CN1CCN(C(=O)CNC(=O)/C=C/c2ccc(-c3cccnc3)cc2)CC1 [I-111]
7.51	O=C(/C=C/c1ccc(C(F)(F)F)cc1)NCC(=O)N1CCn2nccc2C1 [I-93]
7.49	Cc1nnc(CN(CC2(F)CC2)C(=O)CNC(=O)/C=C/c2ccc(C(F)(F)F)cc2)o1 [I-209]
7.54	O=C(/C=C/c1ccc(C(F)(F)F)cc1)NCC(=O)N1CCc2oncc2C1 [I-39]
6.67	O=C(/C=C/c1ccc(C(F)(F)F)cc1)NCC(=O)N1CCN2C(=O)OC[C@H]2C1 [I-32]
7.36	CNS(=O)(=O)c1ccc2c(c1)CCN(C(=O)CNC(=O)/C=C/c1ccc(C(F)(F)F)cc1)C2 [I-221]
7.60	N#Cc1ccc2c(c1)CN(C(=O)CNC(=O)/C=C/c1ccc(C(F)(F)F)cc1)CC2 [I-197]
7.51	O=C(/C=C/c1ccc(C(F)(F)F)cc1)NCC(=O)N1CCCc2ncccc21 [I-185]
7.18	O=C(/C=C/c1ccc(C(F)(F)F)cc1)NCC(=O)N1CCn2nc(C(=O)O)c(-c3ccc(C(F)(F)F)cc3)c2C1 [I-265]
6.09	C[C@@H]1c2ncnn2CCN1C(=O)CNC(=O)/C=C/c1ccc(C(F)(F)F)cc1 [I-204]
7.03	CN(C)C(=O)c1cn2c(n1)CN(C(=O)CNC(=O)/C=C/c1ccc(C(F)(F)F)cc1)CC2 [I-146]
6.97	O=C(/C=C/c1ccc(C(F)(F)F)cc1)NCC(=O)N1CCNC(=O)C1 [I-1, (E)-N-[2-oxo-2-(3-oxopiperazin-1-yl)ethyl]-3-[4-(trifluoromethyl)phenyl]prop-2-enamide]
7.11	CN(C)C(=O)c1nc2n(n1)CCN(C(=O)CNC(=O)/C=C/c1ccc(C(F)(F)F)cc1)C2 [I-206]
6.85	O=C(/C=C/c1ccc(S(F)(F)(F)(F)F)cc1)NCC(=O)N1CCn2nc(C(=O)O)cc2C1 [I-272]
5.87	O=C(/C=C/c1ccc(C(F)(F)F)cc1)NCC(=O)N1CCC(c2cccnc2)C1 (stereo not drawn) [I-71]
6.75	CCCCOc1ccc(/C=C/C(=O)NCC(=O)N2CCN(C)CC2)cc1 [I-113]
6.79	O=C(/C=C/c1ccc(C(F)(F)F)cc1)NCC(=O)N1Cc2nc[nH]c2C1 [I-63]
6.10	CCOCCN(CCOCC)C(=O)CNC(=O)/C=C/c1ccc(C(F)(F)F)cc1 [I-10]

pIC50	SMILES
5.94	Cc1nc(-c2ccc(/C=C/C(=O)NCC(=O)N3CCN(C)CC3)cc2)no1 [I-107]
7.09	Cc1nc2c(s1)CN(C(=O)CNC(=O)/C=C/c1ccc(C(F)(F)F)cc1)C2 [I-61]
6.33	CNC(=O)[C@H]1C[C@H](n2cccn2)CN1C(=O)CNC(=O)/C=C/c1ccc(C(F)(F)F)cc1 [I-215]
7.34	O=C(/C=C/c1ccc(C(F)(F)F)cc1)NCC(=O)N1CCn2c(n[nH]c2=O)C1 [I-38]
6.64	O=C(/C=C/c1ccc(C(F)(F)F)cc1)NCC(=O)N1CCNC(=O)CC1 [I-15]
7.15	CNC(=O)c1nn2c(c1Br)CN(C(=O)CNC(=O)/C=C/c1ccc(C(F)(F)F)cc1)CC2 [I-279]
6.84	O=C(/C=C/c1ccc(C(F)(F)F)cc1)NCC(=O)N1CCn2nc(C(=O)O)c(Br)c2C1 [I-269]
6.48	O=C(/C=C/c1ccc(C(F)(F)F)cc1)NCC(=O)N1CCn2cc(C(=O)O)nc2C1 [I-140, 7-[2-[[(E)-3-[4-(trifluoromethyl)phenyl]prop-2-enoyl]amino]acetyl]-6,8-dihydro-5H-imidazo[1,2-a]pyrazine-2-carboxylic acid]
6.85	O=C(/C=C/c1ccc(C(F)(F)F)cc1)NCC(=O)N1CCc2c(cccc2C(F)(F)F)C1 [I-194]
7.06	CC(C)CNC(=O)C1CN(C(=O)CNC(=O)/C=C/c2ccc(C(F)(F)F)cc2)Cc2ccccc21 (stereo not drawn) [I-278, N-(2-methylpropyl)-2-[2-[[(E)-3-[4-(trifluoromethyl)phenyl]prop-2-enoyl]amino]acetyl]-3,4-dihydro-1H-isoquinoline-4-carboxamide]
7.47	CS(=O)(=O)Nc1ccc2c(c1)CCN(C(=O)CNC(=O)/C=C/c1ccc(C(F)(F)F)cc1)C2 [I-188]
6.14	O=C(/C=C/c1ccc(C(F)(F)F)cc1)NCC(=O)N1CC[C@@H](Cn2cccn2)C1 [I-214]
6.70	CCOc1ccc(/C=C/C(=O)NCC(=O)N2CCN(C)CC2)cc1 [I-117]
7.59	CC1CCN(C(=O)CNC(=O)/C=C/c2ccc(C(F)(F)F)cc2)c2ccnn21 (stereo not drawn) [I-187]
8.00	O=C(/C=C/c1ccc(C(F)(F)F)cc1)NCC(=O)N1CCCc2cnccc21 [I-186]
6.11	COCCN(CC1CCOCC1)C(=O)CNC(=O)/C=C/c1ccc(C(F)(F)F)cc1 [I-49]
5.91	CCNC(=O)N1CCN(C(=O)CNC(=O)/C=C/c2ccc(C(F)(F)F)cc2)CC1 [I-134, N-ethyl-4-[2-[[(E)-3-[4-(trifluoromethyl)phenyl]prop-2-enoyl]amino]acetyl]piperazine-1-carboxamide]
7.68	NC(=O)c1ccc2c(c1)CCN(C(=O)CNC(=O)/C=C/c1ccc(C(F)(F)F)cc1)C2 [I-281]
5.88	O=C(/C=C/c1ccc(C(F)(F)F)cc1)NCC(=O)N1CCCC(n2cccn2)C1 (stereo not drawn) [I-74]
5.71	Cc1nnc([C@H]2CN(C(=O)CNC(=O)/C=C/c3ccc(C(F)(F)F)cc3)CCN2C)o1 [I-131, (E)-N-[2-[(3R)-4-methyl-3-(5-methyl-1,3,4-oxadiazol-2-yl)piperazin-1-yl]-2-oxoethyl]-3-[4-(trifluoromethyl)phenyl]prop-2-enamide]

pIC50	SMILES
6.36	COCCN(Cc1ccncn1)C(=O)CNC(=O)/C=C/c1ccc(C(F)(F)F)cc1 [I-54]
7.51	CN1CCN(C(=O)CNC(=O)/C=C/c2ccc(-c3ccccc3)cc2)CC1 [I-103, (E)-N-[2-(4-methylpiperazin-1-yl)-2-oxoethyl]-3-(4-phenylphenyl) prop-2-enamide]
6.27	COCCN(CC1CCCO1)C(=O)CNC(=O)/C=C/c1ccc(C(F)(F)F)cc1 (stereo not drawn) [I-48]
7.24	CC(C)N1CCN(C(=O)CNC(=O)/C=C/c2ccc(C(F)(F)F)cc2)CC1 [I-24]
6.09	O=C(/C=C/c1ccc(C(F)(F)F)cc1)NCC(=O)N1CCOC(c2ccccc2)C1 (stereo not drawn) [I-14]
7.51	O=C(/C=C/c1ccc(C(F)(F)F)cc1)NCC(=O)N1CCc2cccc(C(F)(F)F)c2C1 [I-191]
6.55	COCCN(C(=O)CNC(=O)/C=C/c1ccc(C(F)(F)F)cc1)C(C)COC (stereo not drawn) [I-11]
7.06	CN1CCN(C(=O)CNC(=O)/C=C/c2ccc(-c3cc(F)c(F)c(F)c3)cc2)CC1 [I-127]
7.68	N#Cc1cnn2c1CN(C(=O)CNC(=O)/C=C/c1ccc(C(F)(F)F)cc1)CC2 [I-190]
7.36	CNC(=O)c1cnn2c1CN(C(=O)CNC(=O)/C=C/c1ccc(C(F)(F)F)cc1)CC2 [I-225]
7.68	O=C(/C=C/c1ccc(C(F)(F)F)cc1)NCC(=O)N1CCc2ncsc2C1 [I-34]
7.36	O=C(/C=C/c1ccc(C(F)(F)F)cc1)NCC(=O)N1CCn2nc(C(F)(F)F)nc2C1 [I-172]
6.88	O=C(/C=C/c1ccc(C(F)(F)F)cc1)NCC(=O)N1CCn2nc(C(=O)O)c(C3CCCCC3)c2C1 [I-266]
5.77	CN(C)C(=O)[C@H]1CCN(C(=O)CNC(=O)/C=C/c2ccc(C(F)(F)F)cc2)C1 [I-145, (3S)-N,N-dimethyl-1-[2-[[(E)-3-[4-(trifluoromethyl)phenyl]prop-2-enoyl]amino]acetyl]pyrrolidine-3-carboxamide]
6.53	COCCN(C)C(=O)CN(CCOC)C(=O)CNC(=O)/C=C/c1ccc(C(F)(F)F)cc1 [I-147, (E)-N-[2-[2-methoxyethyl-[2-[2-methoxyethyl(methyl)amino]-2-oxoethyl]amino]-2-oxoethyl]-3-[4-(trifluoromethyl)phenyl]prop-2-enamide]
7.06	O=C(/C=C/c1ccc(S(F)(F)(F)(F)F)cc1)NCC(=O)N1CCc2cc(C(=O)O)ccc2C1 [I-276, 2-[2-[[(E)-3-[4-(pentafluoro-A6-sulfanyl)phenyl]prop-2-enoyl]amino]acetyl]-3,4-dihydro-1H-isoquinoline-6-carboxylic acid]
7.66	O=C(/C=C/c1ccc(C(F)(F)F)cc1)NCC(=O)N1CCn2ncc(Cl)c2C1 [I-202]
6.67	O=C(/C=C/c1ccc(C(F)(F)F)cc1)NCC(=O)N1CCn2c(nnc2C(F)(F)F)C1 [I-22]
6.59	COCCN(CC(=O)N(C)CCO)C(=O)CNC(=O)/C=C/c1ccc(C(F)(F)F)cc1 [I-148, (E)-N-[2-[[2-[2-hydroxyethyl(methyl)amino]-2-oxoethyl]-(2-methoxyethyl)amino]-2-oxoethyl]-3-[4-(trifluoromethyl)phenyl]prop-2-enamide]
7.70	O=C(/C=C/c1ccc(C(F)(F)F)cc1)NCC(=O)N1CCn2nccc21 [I-180]
